For one data set, the target named is HDAC6 (Homo sapiens (Human), UniProt Q9UBN7). The data set can be described thus: HDAC6 inhibitory activity (fluorogenic HDAC substrate). In kind it is biochemical. To be noted: culture 30° C. for 1 hour. The method, then:
(§1) 2×HDAC enzymes were dispensed in each well of the reaction plate except for the control well without HDAC enzyme, and buffer was dispensed in the control well without the enzyme. Using acoustic technology (Echo550, nanoliter range), compounds dissolved in 100% DMSO were added to the enzyme mixture, spun down, and pre-cultured at room temperature for 10 minutes. All reaction wells were placed with a 2× substrate mixture (fluorogenic HDAC substrate) to initiate the reaction and then spun down. Culture was performed at 30° C. for 1 hour for HDAC6 and 2 hours for HDAC8.
(§2) Afterwards, a developer was added along with trichostatin A to halt the reaction and develop fluorescence. Dynamics measurements were performed with Envision (Ex/Em=360/460 nm) for 20 minutes with 5-minute intervals, and values from endpoint reading were taken for analysis after the phenomenon reached a plateau.

A further data set addresses HDAC8 (Homo sapiens (Human), UniProt Q9BY41). The data set can be described thus: HDAC8 inhibitory activity (fluorogenic HDAC substrate). In kind it is biochemical. To be noted: culture 30° C. for 2 hours. The method, then:
as §1, §2

A further data set is described as follows: MS (in mouse). The class given is in vitro ADME. The arrangement: unit not given here.
A short description of another data set: MS (in human). In kind it is in vitro ADME. Set-up: unit not given here.

Here are results for 27 compounds from patent US20250197369A1, “NOVEL HETEROCYCLIC INHIBITOR FOR HISTONE DEACETYLASE, AND PHARMACEUTICAL COMPOSITION COMPRISING SAME” (SOOKMYUNG WOMEN'S UNIVERSITY INDUSTRY-ACADEMIC COOPERATION …, priority 2022, published 2025).

Chain of HDAC6 (Q9UBN7 whole entry): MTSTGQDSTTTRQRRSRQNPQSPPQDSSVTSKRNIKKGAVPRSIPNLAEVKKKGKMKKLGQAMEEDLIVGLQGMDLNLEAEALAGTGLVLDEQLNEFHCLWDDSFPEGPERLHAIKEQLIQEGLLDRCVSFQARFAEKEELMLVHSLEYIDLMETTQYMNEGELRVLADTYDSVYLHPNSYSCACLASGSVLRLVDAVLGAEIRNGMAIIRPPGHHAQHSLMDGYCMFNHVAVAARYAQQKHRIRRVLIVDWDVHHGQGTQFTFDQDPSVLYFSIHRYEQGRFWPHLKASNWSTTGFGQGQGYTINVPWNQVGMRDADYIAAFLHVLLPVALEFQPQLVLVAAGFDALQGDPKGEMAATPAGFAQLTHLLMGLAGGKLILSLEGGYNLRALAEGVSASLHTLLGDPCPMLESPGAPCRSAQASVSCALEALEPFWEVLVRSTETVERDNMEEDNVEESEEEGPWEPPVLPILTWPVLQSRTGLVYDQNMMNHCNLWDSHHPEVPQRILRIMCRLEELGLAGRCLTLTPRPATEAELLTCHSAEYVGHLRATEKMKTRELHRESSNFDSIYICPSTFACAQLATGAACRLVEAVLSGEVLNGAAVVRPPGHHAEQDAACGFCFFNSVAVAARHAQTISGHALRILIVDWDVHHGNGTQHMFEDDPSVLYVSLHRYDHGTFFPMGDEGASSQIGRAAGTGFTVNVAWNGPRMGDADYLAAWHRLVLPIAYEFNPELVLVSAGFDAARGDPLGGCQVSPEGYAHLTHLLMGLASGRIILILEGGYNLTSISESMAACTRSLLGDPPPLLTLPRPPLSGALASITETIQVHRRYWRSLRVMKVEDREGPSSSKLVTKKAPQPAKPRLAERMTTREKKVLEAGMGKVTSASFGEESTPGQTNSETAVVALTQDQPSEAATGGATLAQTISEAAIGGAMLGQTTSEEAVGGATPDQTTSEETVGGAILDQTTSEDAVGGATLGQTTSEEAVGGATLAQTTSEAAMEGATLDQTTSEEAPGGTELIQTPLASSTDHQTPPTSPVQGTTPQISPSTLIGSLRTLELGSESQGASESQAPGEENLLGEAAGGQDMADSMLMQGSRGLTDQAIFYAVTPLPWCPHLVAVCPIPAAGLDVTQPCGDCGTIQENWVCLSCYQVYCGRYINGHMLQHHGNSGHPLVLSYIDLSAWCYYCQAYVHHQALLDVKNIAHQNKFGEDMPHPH
Chain of HDAC8 (Q9BY41 whole entry, species assumed): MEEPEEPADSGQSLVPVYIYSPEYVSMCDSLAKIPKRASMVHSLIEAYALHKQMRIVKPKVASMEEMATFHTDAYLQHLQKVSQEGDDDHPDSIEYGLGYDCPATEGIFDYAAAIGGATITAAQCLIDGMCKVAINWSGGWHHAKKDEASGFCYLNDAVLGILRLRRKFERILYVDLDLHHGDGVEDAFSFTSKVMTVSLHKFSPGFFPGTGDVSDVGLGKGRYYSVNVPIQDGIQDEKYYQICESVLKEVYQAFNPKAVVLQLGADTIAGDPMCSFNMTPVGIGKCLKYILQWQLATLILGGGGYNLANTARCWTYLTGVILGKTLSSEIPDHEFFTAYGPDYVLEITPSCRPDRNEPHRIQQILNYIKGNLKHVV

Regarding `O=C(NO)c1ccc2cn(Cc3ccc(OC(F)F)cc3)nc2c1` [Compound 62, 2-(4-Difluoromethoxybenzyl)-2H-indazole-6-carboxylic acid hydroxyamide], the IC50 (usually the concentration at which inhibition is half-maximal) against HDAC6 was 4.1 nM; against HDAC8, 500 nM.
Take `O=C(NO)c1ccc2cn(Cc3ccc(Cl)cc3)nc2c1` [Compound 54, 2-(4-Chlorobenzyl)-2H-indazole-6-carboxylic acid hydroxyamide]: the results for the IC50 at HDAC6 and against HDAC8 were 2.7 nM and 776 nM, respectively. For the same compound, the “MS (in mouse)” value in “MS (in mouse)” is recorded as 40.8. Moreover, the “MS (in human)” value in “MS (in human)” is 49.3.
With `O=C(NO)c1ccc2cn(Cc3ccc(F)cc3)nc2c1` [Compound 53, 2-(4-Fluorobenzyl)-2H-indazole-6-carboxylic acid hydroxyamide], the 50% inhibitory concentration (IC50) against HDAC6 worked out at 5.9 nM; against HDAC8 it was 932 nM. Besides, in “MS (in mouse)”, the “MS (in mouse)” value is given as 71.3. The “MS (in human)” value in the data set “MS (in human)” is listed as 85.9.
Consider `O=C(NO)c1ccc2cn(Cc3cc(F)cc(F)c3)nc2c1` [Compound 61, 2-(3,5-Difluorobenzyl)-2H-indazole-6-carboxylic acid hydroxyamide], for which the figures for the half-maximal inhibitory concentration (IC50) against HDAC6 and on HDAC8 were 3.9 nM and 877 nM, respectively.
As to `O=C(NO)c1ccc2cn(CCc3ccccc3)nc2c1` [Compound 59, 2-Phenethyl-2H-indazole-6-carboxylic acid hydroxyamide], the IC50 at HDAC6 amounted to 4 nM; against HDAC8, 1170 nM.
In the same order, the values of `O=C(NO)c1ccc2cn(CCc3ccc(F)cc3)nc2c1` [Compound 65, 2-(2-4-Fluorophenylethyl)-2H-indazole-6-carboxylic acid hydroxyamide] are 6.7 nM and 1520 nM.
Consider `O=C(NO)c1ccc2cn(Cc3ccc4ccccc4c3)nc2c1` [Compound 58, 2-Naphthalen-2-ylmethyl-2H-indazole-6-carboxylic acid hydroxyamide], for which the IC50 against HDAC6 stood at 4.2 nM; at HDAC8, 870 nM.
In the same order, the values of `O=C(NO)c1ccc2cn(Cc3ccc(-c4ccccc4)cc3)nc2c1` [Compound 63, 2-Biphenyl-4-ylmethyl-2H-indazole-6-carboxylic acid hydroxyamide] are 3.6 nM and 1290 nM.
For the compound `O=C(NO)c1ccc2cn(Cc3cccc(F)c3)nc2c1` [Compound 66, 2-(3-Fluorobenzyl)-2H-indazole-6-carboxylic acid hydroxyamide], the concentration for half-maximal inhibition (IC50) came out at 1.8 nM against HDAC6 and 1130 nM against HDAC8.
For `O=C(NO)c1ccc2cn(Cc3cccc(Cl)c3)nc2c1` [Compound 67, 2-(3-Chlorobenzyl)-2H-indazole-6-carboxylic acid hydroxyamide], the IC50 against HDAC6 came out at 1.3 nM; against HDAC8, 8390 nM.
Turning to `O=C(NO)c1ccc2cn(Cc3cccc(OCc4ccccc4)c3)nc2c1` [Compound 71, 2-(3-Benzyloxybenzyl)-2H-indazole-6-carboxylic acid hydroxyamide], the values for the IC50 on HDAC6 and against HDAC8 were 13.5 nM and 2120 nM, respectively.
As to `O=C(NO)c1cc2nn(Cc3cccc(Cl)c3)cc2cc1F` [Compound 89, 2-(3-chlorobenzyl)-5-fluoro-2H-indazole-6-carboxylic acid hydroxyamide], the IC50 on HDAC6 amounted to 30.3 nM; against HDAC8 it was 2370 nM.
Turning to `O=C(NO)c1ccc2cn(Cc3ccccc3)nc2c1` [Compound 50, 2-Benzyl-2H-indazole-6-carboxylic acid hydroxyamide], the IC50 against HDAC6 is 2.6 nM; at HDAC8 it was 1320 nM. The “MS (in mouse)” value in the data set “MS (in mouse)” amounted to 79.3. Moreover, the “MS (in human)” value in the data set “MS (in human)” turned out to be 97.6.
For `O=C(NO)c1ccc2cn(Cc3ccc(C(F)(F)F)cc3)nc2c1` [Compound 69, 2-(4-Trifluoromethylbenzyl)-2H-indazole-6-carboxylic acid hydroxyamide], the IC50 against HDAC6 amounted to 3 nM; on HDAC8, 598 nM.
For the compound `COc1cc(Cn2cc3ccc(C(=O)NO)cc3n2)cc(OC)c1` [Compound 72, 2-(3,5-Dimethoxybenzyl)-2H-indazole-6-carboxylic acid hydroxyamide], the values for the IC50 on HDAC6 and at HDAC8 were 3.8 nM and 814 nM, respectively.
In the case of `O=C(NO)c1ccc2cn(Cc3cccc(OC(F)(F)F)c3)nc2c1` [Compound 56, 2-(3-Trifluoromethoxybenzyl)-2H-indazole-6-carboxylic acid hydroxyamide], the figures for the concentration for half-maximal inhibition (IC50) against HDAC6 and at HDAC8 were 4.4 nM and 1020 nM, respectively.
Regarding `Cc1ccc(Cn2cc3ccc(C(=O)NO)cc3n2)cc1` [Compound 52, 2-(4-Methylbenzyl)-2H-indazole-6-carboxylic acid hydroxyamide], the 50% inhibitory concentration (IC50) at HDAC6 amounted to 7.4 nM; on HDAC8 it was 699 nM.
Regarding `O=C(NO)c1ccc2cn(Cc3cccc(Oc4ccccc4)c3)nc2c1` [Compound 73, 2-(3-Phenoxybenzyl)-2H-indazole-6-carboxylic acid hydroxyamide], the figures for the IC50 on HDAC6 and against HDAC8 were 22.8 nM and 2000 nM, respectively.
With `COc1ccc(CCn2cc3ccc(C(=O)NO)cc3n2)cc1` [Compound 60, 2-(2-4-Methoxyphenylethyl)-2H-indazole-6-carboxylic acid hydroxyamide], the IC50 against HDAC6 worked out at 4.7 nM; at HDAC8, 1100 nM.
For `O=C(NO)c1ccc2cn(Cc3cccc(C(F)(F)F)c3)nc2c1` [Compound 68, 2-(3-Trifluoromethylbenzyl)-2H-indazole-6-carboxylic acid hydroxyamide], the IC50 came to 3.3 nM against HDAC6 and 738 nM against HDAC8.
For `COc1cccc(Cn2cc3ccc(C(=O)NO)cc3n2)c1` [Compound 70, 2-(3-Methoxybenzyl)-2H-indazole-6-carboxylic acid hydroxyamide], the IC50 on HDAC6 came out at 1.8 nM; against HDAC8, 967 nM.
`COc1ccc(Cn2cc3ccc(C(=O)NO)cc3n2)cc1` [Compound 51, 2-(4-Methoxybenzyl)-2H-indazole-6-carboxylic acid hydroxyamide]: the IC50 was found to be 5.4 nM against HDAC6 and 765 nM at HDAC8. Also, the “MS (in mouse)” value in the data set “MS (in mouse)” is 98.6. In addition, the “MS (in human)” value in the data set “MS (in human)” is 76.7.
Regarding `O=C(NO)c1ccc2cn(Cc3ccc(OC(F)(F)F)cc3)nc2c1` [Compound 57, 2-(4-Trifluoromethoxybenzyl)-2H-indazole-6-carboxylic acid hydroxyamide], the values for the IC50 against HDAC6 and against HDAC8 were 5.5 nM and 1070 nM, respectively.
Turning to `CC(C)c1ccc(Cn2cc3ccc(C(=O)NO)cc3n2)cc1` [Compound 64, 2-(4-Isopropylbenzyl)-2H-indazole-6-carboxylic acid hydroxyamide], the IC50 was found to be 29.3 nM at HDAC6 and 2860 nM against HDAC8.
Turning to `O=C(NO)c1ccc2cn(Cc3ccc(Br)cc3)nc2c1` [Compound 55, 2-(4-Bromobenzyl)-2H-indazole-6-carboxylic acid hydroxyamide], the results for the IC50 at HDAC6 and on HDAC8 were 3.4 nM and 593 nM, respectively.
In the case of `COc1cccc(Cn2cc3cc(F)c(C(=O)NO)cc3n2)c1` [Compound 90, 2-(3-Methoxybenzyl)-5-fluoro-2H-indazole-6-carboxylic acid hydroxyamide], the concentration for half-maximal inhibition (IC50) came to 75.4 nM against HDAC6 and 2850 nM at HDAC8.
As for `O=C(NO)c1cc2nn(Cc3ccccc3)cc2cc1F` [Compound 88, 2-Benzyl-5-fluoro-2H-indazole-6-carboxylic acid hydroxyamide], the IC50 turned out to be 74.3 nM against HDAC6 and 3840 nM against HDAC8.
